We go through 4 molecules from patent EP0607373B1, “TRISUBSTITUTED PHENYL DERIVATIVES AS SELECTIVE PHOSPHODIESTERASE IV INHIBITORS” (CELLTECH THERAPEUTICS LIMITED, priority 1992, dated 1993).

The subject of data set [1] is PDE IV, HL60 cells. Nature of the data set: Isolated enzyme phosphodiesterase assay, PDE IV. To be noted: 0.1µM [3H]-cAMP, 30°C, pH 7.5, read-out: approximate Ki values (Ki PDE IV HL60 at (1µM)). Format: biochemical. The protocol:
The potency and selectivity of the compounds of the invention was determined using a battery of distinct PDE isoenzymes as follows: • i. PDE I, rabbit heart • ii. PDE II, rabbit heart • iii. PDE III, rabbit heart • iv. PDE IV, HL60 cells.
The enzymes were purified to kinetic homogeneity using standard chromatographic techniques.
Phosphodiesterase activity was assayed as follows. The reaction was conducted in 150µl of standard mixture containing (final concentrations): 50mM TES-NaOH buffer (pH 7.5), 10mM MgCl2, 0.1µM [^3H]-cAMP and vehicle or various concentrations of the test compounds. The reaction was initiated by addition of enzyme and conducted at 30°C for between 5 to 30 mins. The reaction was terminated by addition of 50µl 2% trifluoroacetic acid containing [^14C]-5'AMP for determining recovery of the product. An aliquot of the sample was then applied to a column of neutral alumina and the [^3H]-cAMP eluted with 10ml 0.1 TES-NaOH buffer (pH8). The [^3H]-5'-AMP product was eluted with 2ml 2M NaOH into a scintillation vial containing 10ml of scintillation cocktail. Recovery of [^3H]-5'AMP was determined using the [^14C]-5'AMP and all assays were conducted in the linear range of the reaction.

Data set [2] relates to Right atrial and papillary muscles. Conditions: reference inhibitors, general statement on these preparations; cited from earlier work.

By Ki is commonly meant a measure of affinity in units of concentration, obtained from inhibition or displacement. As to `COc1ccc(NC(=O)c2ccccc2)cc1OC1CCCC1` [Example 1, N-Benzoyl-3-cyclopentyloxy-4-methyloxyaniline], in data set [1], the Ki is ~391 nM.
On the same count and under the same terms, the same measure for `COc1ccc(NC(=O)c2ccccc2[N+](=O)[O-])cc1OC1CCCC1` [Example 3, 3-Cyclopentyloxy-4-methyloxy-N-(2-Nitrobenzoyl)aniline]: ~179 nM.
As for `Cc1[nH]c(=O)c(C#N)cc1-c1ccncc1` [milrinone], in data set [2], the “direct effects on isolated cardiac muscle (chronotropic, inotropic)” value is “positive chronotropic and inotropic effects”.
With `COc1ccc(C2CNC(=O)C2)cc1OC1CCCC1` (stereo not shown) [rolipram], in data set [2], the “direct effects on isolated cardiac muscle (chronotropic, inotropic)” value is listed as “do not have any direct effects”.
